Biological target: T1, human metabotropic Glutamate 4 receptor (Homo sapiens, UniProt Q14833)
T1 construct: expressed in transfected cells; host or cells: HEK293
Assay: In vitro testing of mGluR4 potency (Assay A), cAMP HTRF in HEK293 cells
Type: cell-based
Details: Table 2; HEK293 cell overexpressing human mGluR4; 10 uM L-Glutamic acid, 1 uM forskolin
Protocol: A. In Vitro Testing of mGluR4 Potency
The in vitro activity of the compounds according to the invention may be investigated as follows:
The HEK293 cell overexpressing the human metabotropic Glutamate 4 receptor were thawed at 37° C. and immediately diluted with cell culture medium. After centrifugation, the cell pellet is re-suspended in medium and then distributed from a stirred spinner flask into the wells of the assay plate. The plates are incubated for one hour at room temperature before they are incubated for 24 hours at 37° C./5% C02. After washing the cells in the plate three times with 80 uL HBSS/HEPES buffer (10 uL buffer remained in the wells after washing), 5 uL per well of compounds diluted in HBSS/HEPES buffer containing 0.2% BSA (final concentration: 0.1%) and 1 mM IBMX (final concentration: 0.5 mM) are added to the wells of the assay plate. Thereafter 5 uL per well of L-Glutamic acid (final concentration: 10 uM), forskolin (final concentration: 1 uM) and 1 mM IBMX (final concentration: 0.5 mM) dissolved in HBSS/HEPES buffer containing 0.2% BSA (final concentration: 0.1%) are added to the assay plate (final DMSO concentration: 1%). Several wells of the assay plate are used either for the positive and the negative controls or for the cAMP standard curve. The assay plate is incubated for 30 minutes at room temperature. Then 5 ul per well of Anti-cAMP-Antibody-d2 solution and 5 ul per well of cAMP-Europium Cryptate dilution are added to all wells of the plate and the plate is incubated another 60 minutes light protected at room temperature. The emission at 615 nm and 665 nm (Excitation wavelength: 320 nm) are measured on the EnVision™ reader (PerkinElmer). The ratio between the emission at 665 nm and 615 is calculated by the reader. The whole assay is performed in the dark or under green light.
The cAMP standard is prepared by diluting the cAMP stock solution with HBSS/Hepes buffer: 5 μl/well of the cAMP dilutions (in HBSS/Hepes buffer containing 1 mM IBMX and 0.2% BSA-final concentration: 0.5 mM IBMX and 0.1% BSA) are added to 10 ul/well HBSS/Hepes buffer plus 5 ul/well 4% DMSO in HBSS/Hepes containing 0.2% BSA (final DMSO concentration: 1%-like in the wells containing compounds) in the wells of the assay plate. The final cAMP concentrations in the assay plate were: 0, 0.17, 0.69, 2.78, 11.1, 44.5, 178, and 712 nM (two wells/cAMP concentration).
Each assay microtiter plate contained also wells with vehicle controls instead of compound as controls for L-Glutamic acid induced signal (negative control; 100% CTL; 10 uM L-Glutamic acid+1 uM forskolin+0.5 mM IBMX+1% DMSO) and wells with vehicle controls without L-Glutamic acid as controls for non-specific changes in signal (positive control; 0% CTL; 0 uM L-Glutamic acid+1 uM forskolin+0.5 mM IBMX+1% DMSO).
The analysis of the data is performed by the calculation the ratio between the emission at 665 nm and the emission at 615 nm (Em665/Em615 ratio). Thereafter the signals of the compounds are normalized using the positive and negative controls by the following formula:
PoC=100×((Signal Sample−Positive Control)/(Negative Control−Positive Control))

T1 sequence (Q14833 33-912): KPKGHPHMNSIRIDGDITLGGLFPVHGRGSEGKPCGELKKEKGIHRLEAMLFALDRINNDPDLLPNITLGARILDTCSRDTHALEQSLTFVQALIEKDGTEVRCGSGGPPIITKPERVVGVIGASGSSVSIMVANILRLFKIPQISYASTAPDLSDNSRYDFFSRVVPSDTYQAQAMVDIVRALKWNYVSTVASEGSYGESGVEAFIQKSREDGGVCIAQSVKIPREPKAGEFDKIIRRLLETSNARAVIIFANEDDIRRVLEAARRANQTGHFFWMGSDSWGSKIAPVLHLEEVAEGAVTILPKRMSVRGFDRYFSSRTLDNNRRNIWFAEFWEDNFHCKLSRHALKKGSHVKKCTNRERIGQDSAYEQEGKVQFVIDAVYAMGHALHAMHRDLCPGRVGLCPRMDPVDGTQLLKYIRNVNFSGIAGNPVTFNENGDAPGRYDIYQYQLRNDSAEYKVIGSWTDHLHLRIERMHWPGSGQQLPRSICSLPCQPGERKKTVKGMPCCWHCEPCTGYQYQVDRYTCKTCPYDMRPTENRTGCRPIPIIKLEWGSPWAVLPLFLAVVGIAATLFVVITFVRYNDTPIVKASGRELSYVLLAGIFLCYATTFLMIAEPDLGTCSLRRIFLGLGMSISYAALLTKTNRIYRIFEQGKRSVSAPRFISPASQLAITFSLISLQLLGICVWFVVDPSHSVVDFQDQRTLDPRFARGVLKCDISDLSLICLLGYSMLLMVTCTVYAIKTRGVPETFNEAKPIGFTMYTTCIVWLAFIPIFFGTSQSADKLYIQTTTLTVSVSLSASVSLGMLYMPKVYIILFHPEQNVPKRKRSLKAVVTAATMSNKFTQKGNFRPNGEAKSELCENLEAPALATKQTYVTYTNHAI

SMILES	IC50
CO[C@@H](C)[C@H](NC(=O)c1cnc(C)cn1)c1nc2cc(Cl)cnc2n1C(C)C [Example 23, N-[(1R,2S)-1-[6-chloro-3-(propan-2-yl)-3H-imidazo[4,5-b]pyridin-2-yl]-2-methoxypropyl]-5-methylpyrazine-2-carboxamide]	0.01 µM
Cc1cnc(C(=O)N[C@H](c2nc3cc(Cl)cnc3n2C(C)C)C2(O)CCC2)cn1 [Example 25, N-[(R)-[6-chloro-3-(propan-2-yl)-3H-imidazo[4,5-b]pyridin-2-yl](1-hydroxycyclobutyl)methyl]-5-methylpyrazine-2-carboxamide]	0.012 µM
CC(C)n1c([C@@H](NC(=O)c2cnc(C(F)F)cn2)C2CC2)nc2cc(C(F)(F)F)ncc21 [Example 27, N-[(S)-cyclopropyl[3-(propan-2-yl)-6-(trifluoromethyl)-3H-imidazo[4,5-c]pyridin-2-yl]methyl]-5-(difluoromethyl)pyrazine-2-carboxamide]	0.031 µM
Cc1cnc(C(=O)N[C@H](c2nc3c(C)c(C#N)cnc3n2C(C)C)C2CC2)cn1 [Example 28, N-[(S)-[6-cyano-7-methyl-3-(propan-2-yl)-3H-imidazo[4,5-b]pyridin-2-yl](cyclopropyl)methyl]-5-methylpyrazine-2-carboxamide]	0.006 µM
CC(C)n1c([C@@H](NC(=O)c2cnc(C(F)F)cn2)C2CCC2)nc2cc(C#N)cnc21 [Example 30, N-[(S)-[6-cyano-3-(propan-2-yl)-3H-imidazo[4,5-b]pyridin-2-yl](cyclobutyl)methyl]-5-(difluoromethyl)pyrazine-2-carboxamide]	0.014 µM
CC(C)n1c([C@@H](NC(=O)c2cnc(C(F)F)cn2)C2CC2)nc2cc(F)cnc21 [Example 32, N-[(S)-cyclopropyl[6-fluoro-3-(propan-2-yl)-3H-imidazo[4,5-b]pyridin-2-yl]methyl]-5-(difluoromethyl)pyrazine-2-carboxamide]	0.015 µM
Cc1cnc(C(=O)N[C@@H](CC2CC2)c2nc3cc(C#N)c(C)nc3n2C(C)C)cn1 [Example 33, N-[(1S)-1-[6-cyano-5-methyl-3-(propan-2-yl)-3H-imidazo[4,5-b]pyridin-2-yl]-2-cyclopropylethyl]-5-methylpyrazine-2-carboxamide]	0.015 µM
Cc1cnc(C(=O)N[C@H](c2nc3cc(Cl)cnc3n2C(C)C)[C@H]2CCCO2)cn1 [Example 34, N-[(R)-[6-chloro-3-(propan-2-yl)-3H-imidazo[4,5-b]pyridin-2-yl][(2R)-oxolan-2-yl]methyl]-5-methylpyrazine-2-carboxamide]	0.016 µM
Cc1c(C#N)cnc2c1nc([C@@H](NC(=O)c1cnc(C(F)F)cn1)[C@@H]1CCCO1)n2C(C)C [Example 36, N-[(R)-[6-cyano-7-methyl-3-(propan-2-yl)-3H-imidazo[4,5-b]pyridin-2-yl][(2S)-oxolan-2-yl]methyl]-5-(difluoromethyl)pyrazine-2-carboxamide]	0.018 µM
COC(C)(C)[C@H](NC(=O)c1cnc(C)cn1)c1nc2cccnc2n1C(C)C [Example 37, N-[(1R)-2-methoxy-2-methyl-1-[3-(propan-2-yl)-3H-imidazo[4,5-b]pyridin-2-yl]propyl]-5-methylpyrazine-2-carboxamide]	0.019 µM
Cc1cnc(C(=O)N[C@@H](C[C@@H]2CCCO2)c2nc3c(C)c(C#N)cnc3n2C(C)C)cn1 [Example 38, N-[(1S)-1-[6-cyano-7-methyl-3-(propan-2-yl)-3H-imidazo[4,5-b]pyridin-2-yl]-2-[(2S)-oxolan-2-yl]ethyl]-5-methylpyrazine-2-carboxamide]	0.019 µM
Cc1cnc(C(=O)N[C@H](c2nc3c(C)c(C#N)cnc3n2C(C)C)[C@H]2CCCO2)cn1 [Example 40, N-[(R)-[6-cyano-7-methyl-3-(propan-2-yl)-3H-imidazo[4,5-b]pyridin-2-yl][(2R)-oxolan-2-yl]methyl]-5-methylpyrazine-2-carboxamide]	0.021 µM
Cc1cnc(C(=O)N[C@H](c2nc3cnc(C(F)(F)F)cc3n2C(C)C)C2CC2)cn1 [Example 43, N-[(S)-cyclopropyl[1-(propan-2-yl)-6-(trifluoromethyl)-1H-imidazo[4,5-c]pyridin-2-yl]methyl]-5-methylpyrazine-2-carboxamide]	0.024 µM
CCn1c([C@@H](NC(=O)c2cnc(C)cn2)C2CC2)nc2c(C)nc(C(F)(F)F)cc21 [Example 45, N-[(S)-cyclopropyl[1-ethyl-4-methyl-6-(trifluoromethyl)-1H-imidazo[4,5-c]pyridin-2-yl]methyl]-5-methylpyrazine-2-carboxamide]	0.033 µM
O=C(N[C@H](c1nc2cnc(C(F)(F)F)cc2n1CC(F)F)C1CC1)c1cnc(C(F)F)cn1 [Example 46, N-[(S)-cyclopropyl[1-(2,2-difluoroethyl)-6-(trifluoromethyl)-1H-imidazo[4,5-c]pyridin-2-yl]methyl]-5-(difluoromethyl)pyrazine-2-carboxamide]	0.041 µM

Continued by falling IC50, values first:

IC50	SMILES
0.026 µM	Cc1cnc(C(=O)N[C@H](c2nc3cc(F)cnc3n2C(C)C)C2CC2)cn1 [Example 44, N-[(S)-cyclopropyl[6-fluoro-3-(propan-2-yl)-3H-imidazo[4,5-b]pyridin-2-yl]methyl]-5-methylpyrazine-2-carboxamide]
0.021 µM	Cc1cnc(C(=O)N[C@H](c2nc3c(C)nc(C(F)(F)F)cc3n2CC(F)F)C2CC2)cn1 [Example 39, N-[(S)-cyclopropyl[1-(2,2-difluoroethyl)-4-methyl-6-(trifluoromethyl)-1H-imidazo[4,5-c]pyridin-2-yl]methyl]-5-methylpyrazine-2-carboxamide]
0.021 µM	Cc1cnc(C(=O)N[C@H](c2nc3cc(Cl)cnc3n2C(C)C)[C@@H]2CCCO2)cn1 [Example 41, N-[(R)-[6-chloro-3-(propan-2-yl)-3H-imidazo[4,5-b]pyridin-2-yl][(2S)-oxolan-2-yl]methyl]-5-methylpyrazine-2-carboxamide]
0.021 µM	CO[C@H](C)[C@H](NC(=O)c1cnc(C)cn1)c1nc2c(C)c(C#N)cnc2n1C(C)C [Example 42, N-[(1R,2R)-1-[6-cyano-7-methyl-3-(propan-2-yl)-3H-imidazo[4,5-b]pyridin-2-yl]-2-methoxypropyl]-5-methylpyrazine-2-carboxamide]
0.018 µM	O=C(N[C@H](c1nc2cc(C(F)(F)F)ncc2n1CC(F)F)C1CC1)c1cnc(C(F)F)cn1 [Example 35, N-[(S)-cyclopropyl[3-(2,2-difluoroethyl)-6-(trifluoromethyl)-3H-imidazo[4,5-c]pyridin-2-yl]methyl]-5-(difluoromethyl)pyrazine-2-carboxamide]
0.014 µM	COc1c(C#N)cnc2c1nc([C@@H](NC(=O)c1cnc(C)cn1)C1CC1)n2C(C)C [Example 31]
0.013 µM	Cc1c(C#N)cnc2c1nc([C@@H](NC(=O)c1cnc(C(F)F)cn1)C1(O)CCC1)n2C(C)C [Example 26, N-[(R)-[6-cyano-7-methyl-3-(propan-2-yl)-3H-imidazo[4,5-b]pyridin-2-yl](1-hydroxycyclobutyl)methyl]-5-(difluoromethyl)pyridazine-2-carboxamide]
0.01 µM	CO[C@H](C)[C@H](NC(=O)c1cnc(C(F)F)cn1)c1nc2cc(C(F)(F)F)cnc2n1C(C)C [Example 24, 5-(difluoromethyl)-N-[(1R)-2-methoxy-1-[3-(propan-2-yl)-6-(trifluoromethyl)-3H-imidazo[4,5-b]pyridin-2-yl]propyl]pyrazine-2-carboxamide]

From patent US20260199325A1, “NOVEL SUBSTITUTED PYRAZINE-CARBOXAMIDE-IMIDAZOPYRIDINE DERIVATIVES” (Boehringer Ingelheim International GmbH, priority 2022, published 2026)
